The record followed here is patent publication US20240050428A1 (Cullgen (Shanghai), Inc., priority 2020, published 2024).

Read-outs that look alike come from different tables or passages of the source.

Test [1] has as its system MV4;11 cells. Kind of test: Cell viability assay (CellTiter-Glo) in MV4;11 cells, alone or with gilteritinib. The conditions noted are these: Homo sapiens, MV4;11 cells, CellTiter-Glo, read-out: MV4. It is filed as cell-based. Background: ATP-based viability assays read luminescence as a measure of living cells.
The test system of test [2] is MOLM-13 cells. Kind of test: Cell viability assay (CellTiter-Glo) in MOLM-13 cells, alone or with gilteritinib. The test is classed as cell-based. Particulars: Homo sapiens, MOLM-13 cells, CellTiter-Glo.
The mark [3] stands for this setting: MV4-11, 72 h, compound alone (without gilteritinib), three days, 11 IC50.
The mark [4] stands for this setting: MV4-11, 72 h, with gilteritinib 10 nM, three days, 11 IC50 gilteritinib.
[5] abbreviates: MOLM-13, 72 h, compound alone (without gilteritinib), three days, read-out: MOLM-13 IC50.
Where [6] appears, read: MOLM-13, 72 h, with gilteritinib 20 nM, three days, read-out: MOLM-13 IC50 gilteritinib.
Setting [7] is: MV4-11, 72 h, compound with gilteritinib 10 nM, three days, 11 IC50 gilteritinib.
Where [8] appears, read: MOLM-13, 72 h, compound with gilteritinib 20 nM, three days, read-out: MOLM-13 IC50 gilteritinib.
Setting [9] is: 72 h, compound alone (without gilteritinib), three days, 11 IC50.
The mark [10] stands for this setting: 72 h, compound with gilteritinib 10 nM, three days, 11 IC50 gilteritinib.
Where [11] appears, read: 72 h, compound alone (without gilteritinib), three days, read-out: MOLM-13 IC50.
[12] abbreviates: 72 h, compound with gilteritinib 20 nM, three days, read-out: MOLM-13 IC50 gilteritinib.

For `O=C(CN1CCC(n2cc(-c3cnc4ccccc4n3)cn2)CC1)NCCCNc1ccc2c(c1)C(=O)N(C1CCC(=O)NC1=O)C2=O` (stereo not drawn) [GS-316, N-(3-((2-(2,6-Dioxopiperidin-3-yl)-1,3-dioxoisoindolin-5-yl)amino)propyl)-2-(4-(4-(quinoxalin-2-yl)-1H-pyrazol-1-yl)piperidin-1-yl)acetamide], the IC50 in test [1] (setting [3]) is more than 1000 nM; in test [1] (setting [4]), more than 1000 nM; in test [2] (setting [5]), more than 1000 nM; in test [2] (setting [6]), 100 to 1000 nM.

Turning to `O=C1CCC(N2C(=O)c3ccc(NCCCN4CCCC(N5CCN(c6ccccn6)CC5)C4)cc3C2=O)C(=O)N1` (stereo not drawn) [GS-350, 2-(2,6-Dioxopiperidin-3-yl)-5-((3-(3-(4-(pyridin-2-yl)piperazin-1-yl)piperidin-1-yl)propyl)amino)isoindoline-1,3-dione], the IC50 in test [1] (setting [3]) is more than 1000 nM; in test [1] (setting [4]) it was more than 1000 nM; in test [2] (setting [5]), more than 1000 nM; in test [2] (setting [6]), less than 10 nM.

For `O=C1CCC(N2C(=O)c3ccc(NC[C@H]4C[C@H](n5cc(-c6nccc7cnccc67)c(C6CC6)n5)C4)cc3C2=O)C(=O)N1` (stereo partly drawn) [GS-280, 5-(((trans-3-(3-Cyclopropyl-4-(2,6-naphthyridin-1-yl)-1H-pyrazol-1-yl)cyclobutyl)methyl)amino)-2-(2,6-dioxopiperidin-3-yl)isoindoline-1,3-dione], the IC50 in test [1] (setting [3]), in test [1] (setting [4]), in test [2] (setting [5]) and in test [2] (setting [6]) was less than 10 nM each time.

For `O=C1CCC(N2Cc3ccc(NCCCCCCn4cc(-c5cnc6ccccc6n5)cn4)cc3C2=O)C(=O)N1` (stereo not drawn) [GS-128, 3-(1-Oxo-6-((6-(4-(quinoxalin-2-yl)-1H-pyrazol-1-yl)hexyl)amino)isoindolin-2-) piperidine-2,6-dione], the IC50 in test [1] (setting [3]), in test [1] (setting [4]), in test [2] (setting [5]) and in test [2] (setting [6]) was more than 1000 nM each time.

For `N#Cc1cccc2ncc(-c3cnn(CCCCCCNc4ccc5c(c4)C(=O)N(C4CCC(=O)NC4=O)C5=O)c3)nc12` (stereo not drawn) [GS-165, 3-(1-(6-((2-(2,6-Dioxopiperidin-3-yl)-1,3-dioxoisoindolin-5-yl)amino)hexyl)-1H-pyrazol-4-yl)quinoxaline-5-carbonitrile], the IC50 in test [1] (setting [3]) lay within 100 to 1000 nM; in test [1] (setting [4]), 10 to 100 nM; in test [2] (setting [5]) it was 100 to 1000 nM; in test [2] (setting [6]) it was 10 to 100 nM.

With `O=C1CCC(N2C(=O)c3ccc(NCCCCCCn4cc(-c5cnc6ccc(C7CCNCC7)cc6n5)cn4)cc3C2=O)C(=O)N1` (stereo not drawn) [GS-541, 2-(2,6-Dioxopiperidin-3-yl)-5-((6-(4-(7-(piperidin-4-yl)quinoxalin-2-yl)-1H-pyrazol-1-yl)hexyl)amino)isoindoline-1,3-dione], the IC50 in test [1] (setting [3]) was 100 to 1000 nM; in test [1] (setting [7]) it was less than 10 nM; in test [2] (setting [5]), 10 to 100 nM; in test [2] (setting [8]) it was less than 10 nM.

As to `O=C1CCC(N2C(=O)c3ccc(NCCC[C@H]4C[C@@H](n5cc(-c6cnc7cc(N8CCOCC8)ccc7n6)cn5)C4)cc3C2=O)C(=O)N1` (stereo partly drawn) [GS-402, 2-(2,6-Dioxopiperidin-3-yl)-5-((3-(cis-3-(4-(6-morpholinoquinoxalin-2-yl)-1H-pyrazol-1-yl)cyclobutyl)propyl)amino)isoindoline-1,3-dione], the IC50 in test [1] (setting [3]) is 100 to 1000 nM; in test [1] (setting [4]), 10 to 100 nM; in test [2] (setting [5]), more than 1000 nM; in test [2] (setting [6]) it was 10 to 100 nM.

As for `O=C1CCC(N2C(=O)c3ccc(NCCCCCCn4cc(-c5cnc6cccc(C7CCNCC7)c6n5)cn4)cc3C2=O)C(=O)N1` (stereo not drawn) [GS-393, 2-(2,6-Dioxopiperidin-3-yl)-5-((6-(4-(8-(piperidin-4-yl)quinoxalin-2-yl)-1H-pyrazol-1-yl)hexyl)amino)isoindoline-1,3-dione], the IC50 in test [1] (setting [3]), in test [1] (setting [4]), in test [2] (setting [5]) and in test [2] (setting [6]) was more than 1000 nM in each case.

On to `O=C1CCC(N2C(=O)c3ccc(NC[C@H]4C[C@H](n5cc(-c6ccccc6)c(C6CC6)n5)C4)cc3C2=O)C(=O)N1` (stereo partly drawn) [GS-598, 5-(((trans-3-(3-Cyclopropyl-4-phenyl-1H-pyrazol-1-yl)cyclobutyl)methyl)amino)-2-(2,6-dioxopiperidin-3-yl)isoindoline-1,3-dione], for which the IC50 in test [1] (setting [9]) is 10 to 100 nM; in test [1] (setting [10]) it was less than 10 nM; in test [2] (setting [11]) it was 100 to 1000 nM; in test [2] (setting [12]), 10 to 100 nM.

For the compound `CN1CCN(c2ccc3ncc(-c4cnn([C@H]5C[C@H](CNc6ccc7c(c6)C(=O)N(C6CCC(=O)NC6=O)C7=O)C5)c4)nc3c2)CC1` (stereo partly drawn) [GS-185, 2-(2,6-Dioxopiperidin-3-yl)-5-(((trans-3-(4-(7-(4-methylpiperazin-1-yl)quinoxalin-2-yl)-1H-pyrazol-1-yl)cyclobutyl)methyl)amino)isoindoline-1,3-dione], the IC50 in test [1] (setting [3]) fell in the range of 100 to 1000 nM; in test [1] (setting [4]) it was 10 to 100 nM; in test [2] (setting [5]), 100 to 1000 nM; in test [2] (setting [6]), 10 to 100 nM.

Turning to `Cc1c(-c2cnc3ccccc3n2)cnn1[C@H]1C[C@H](CCCNc2ccc3c(c2)C(=O)N(C2CCC(=O)NC2=O)C3=O)C1` (stereo partly drawn) [GS-170, 2-(2,6-Dioxopiperidin-3-yl)-5-((3-(trans-3-(5-methyl-4-(quinoxalin-2-yl)-1H-pyrazol-1-yl)cyclobutyl)propyl)amino)isoindoline-1,3-dione], the IC50 in test [1] (setting [3]) is more than 1000 nM; in test [1] (setting [4]), 10 to 100 nM; in test [2] (setting [5]) it was more than 1000 nM; in test [2] (setting [6]), 10 to 100 nM.

As to `O=C1CCC(N2C(=O)c3ccc(NC[C@H]4C[C@H](n5cc(-c6cnc7ccc(CN8CCOCC8)cc7n6)c(C6CC6)n5)C4)cc3C2=O)C(=O)N1` (stereo partly drawn) [GS-067, 5-(((trans-3-(3-Cyclopropyl-4-(7-(morpholinomethyl)quinoxalin-2-yl)-1H-pyrazol-1-yl)cyclobutyl)methyl)amino)-2-(2,6-dioxopiperidin-3-yl)isoindoline-1,3-dione], the IC50 in test [1] (setting [3]) was 10 to 100 nM; in test [1] (setting [4]), 10 to 100 nM; in test [2] (setting [5]), more than 1000 nM; in test [2] (setting [6]) it was 10 to 100 nM.

On to `O=C1CCC(N2C(=O)c3ccc(NCCCc4cc(F)cc(N5CCC(c6ccccc6)CC5)c4)cc3C2=O)C(=O)N1` (stereo not drawn) [GS-505, 2-(2,6-Dioxopiperidin-3-yl)-5-((3-(3-fluoro-5-(4-phenylpiperidin-1-yl)phenyl)propyl)amino)isoindoline-1,3-dione], for which the IC50 in test [1] (setting [9]) was 10 to 100 nM; in test [1] (setting [10]), 10 to 100 nM; in test [2] (setting [11]) it was 10 to 100 nM; in test [2] (setting [12]), less than 10 nM.

Regarding `O=C1CCC(N2C(=O)c3ccc(NCCC[C@H]4C[C@H](n5cc(-c6cnc7ccc(C8CCNCC8)cc7n6)cn5)C4)cc3C2=O)C(=O)N1` (stereo partly drawn) [GS-199, 2-(2,6-Dioxopiperidin-3-yl)-5-((3-(trans-3-(4-(7-(piperidin-4-yl)quinoxalin-2-yl)-1H-pyrazol-1-yl)cyclobutyl)propyl)amino)isoindoline-1,3-dione], the IC50 in test [1] (setting [3]) was 10 to 100 nM; in test [1] (setting [4]), less than 10 nM; in test [2] (setting [5]) it was 100 to 1000 nM; in test [2] (setting [6]), less than 10 nM.

Take `O=C1CCC(N2C(=O)c3ccc(NC[C@H]4C[C@H](n5cc(-c6ccccc6F)c(C6CC6)n5)C4)cc3C2=O)C(=O)N1` (stereo partly drawn) [GS-289, 5-(((trans-3-(3-Cyclopropyl-4-(2-fluorophenyl)-1H-pyrazol-1-yl)cyclobutyl)methyl)amino)-2-(2,6-dioxopiperidin-3-yl)isoindoline-1,3-dione]: the IC50 in test [1] (setting [3]) was 10 to 100 nM; in test [1] (setting [4]), less than 10 nM; in test [2] (setting [5]), 100 to 1000 nM; in test [2] (setting [6]), 10 to 100 nM.

`O=C(CCC(F)(F)C(=O)N1CCC(n2cc(-c3cnc4ccccc4n3)cn2)CC1)NCc1ccc2c(c1)CN(C1CCC(=O)NC1=O)C2=O` (stereo not drawn) [GS-518, N-((2-(2,6-Dioxopiperidin-3-yl)-1-oxoisoindolin-5-yl)methyl)-4,4-difluoro-5-oxo-5-(4-(4-(quinoxalin-2-yl)-1H-pyrazol-1-yl)piperidin-1-yl)pentanamide]: the IC50 was 10 to 100 nM in test [1] (setting [3]), less than 10 nM in test [1] (setting [7]), 100 to 1000 nM in test [2] (setting [5]) and less than 10 nM in test [2] (setting [8]).

On to `O=C1CCC(N2C(=O)c3ccc(NCCCCCC(=O)N4CCC(c5ncccn5)CC4)cc3C2=O)C(=O)N1` (stereo not drawn) [GS-014, 2-(2,6-Dioxopiperidin-3-yl)-5-((6-oxo-6-(4-(pyrimidin-2-yl)piperidin-1-yl)hexyl)amino)isoindoline-1,3-dione], for which the IC50 in test [1] (MV4-11, 72 h, with 10 nM gilteritinib, 3 days, 11 IC50 gilteritinib) is 8.3 nM; in test [1] (MV4-11, 72 h, without gilteritinib, 3 days, 11 IC50), 71 nM; in test [2] (MOLM-13, 72 h, with 20 nM gilteritinib, 3 days, read-out: MOLM-13 IC50 gilteritinib), 10 nM; in test [2] (MOLM-13, 72 h, without gilteritinib, 3 days, read-out: MOLM-13 IC50), 107 nM.

As to `O=C1CCC(N2C(=O)c3ccc(CNC(=O)NC4CCCC(n5cc(-c6cnc7ccccc7n6)cn5)C4)cc3C2=O)C(=O)N1` (stereo not drawn) [GS-349, 1-((2-(2,6-Dioxopiperidin-3-yl)-1,3-dioxoisoindolin-5-yl)methyl)-3-(3-(4-(quinoxalin-2-yl)-1H-pyrazol-1-yl)cyclohexyl)urea], the IC50 in test [1] (setting [3]) lay in the range of 10 to 100 nM; in test [1] (setting [4]), 10 to 100 nM; in test [2] (setting [5]), 100 to 1000 nM; in test [2] (setting [6]), 10 to 100 nM.
